Results: article PMC6240685, “Strong Inhibitory Effect, Low Cytotoxicity and High Plasma Stability of Steroidal Inhibitors of N-Methyl-D-Aspartate Receptors With C-3 Amide Structural Motif” (Frontiers in Pharmacology, 2018)

System: GABARs
Assay: Inhibition of native GABAR responses in cultured hippocampal neurons
Type: cell-based, rat
Method: FIGURE 8 The effect of compound 6 on peak and steady-state responses of native NMDARs, AMPARs, and GABARs. (A) Examples of traces obtained from cultured hippocampal neurons. Compound 6 (10 μM) was pre-applied in the absence of agonists followed by co-application with NMDA (100 μM), AMPA (100 μM), and GABA (5 μM) (duration of agonist and steroid application is indicated by filled and open bars, respectively). (B) Bar graph represents the mean values of relative changes in the peak (black columns) and steady-state (red columns) responses of native NMDARs, AMPARs, and GABARs recorded in the continuous presence of 10 μM compound 6. Error bars represent SD from five independent measurements. Asterisks mark significance at the level of P < 0.05 (Paired t-test). […]
Electrophysiological experiments were performed on HEK293 cells transfected with plasmids encoding rat GluN1-1a/GluN2A-D and GFP genes as described previously, ([Petrovic et al., 2005]; [Cais et al., 2008]; [Korinek et al., 2010]) or on primary hippocampal neurons prepared from P0–P1 rats, plated on collagen/poly-D-lysine-coated glass coverslips at a density of ∼50,000 cells/cm^2, and grown in Neurobasal A medium with B27 Supplement (Gibco). […] Agonist-induced responses were low-pass filtered at 2 kHz, digitally sampled at 5 kHz, and analyzed with pClamp software version 10.5 (Molecular Devices). […]

SMILES: C[C@@]12CCC[C@H]1[C@@H]1CC[C@@H]3C[C@H](NC(=O)[C@@H](N)CC(=O)O)CC[C@]3(C)[C@H]1CC2 [Compound 6, (S)-3-amino-4-(((3R,5R,8S,9S,10S,13S,14S)-10,13-dimethylhexadecahydro-1H-cyclopenta[a]phenanthren-3-yl)amino)-4-oxobutanoic acid]
- IC50 (5 μM GABA, hippocampal neurons): 17 ± 0.2 µM
- inhibition of steady-state vs peak response, GABARs (10 μM compound present continuously, GABA 5 μM): more efficient inhibitor of tonically activated receptors at the steady–state
